Assay results taken from PMC12281475, “Mediator Kinase Inhibitor Selectivity and Activity in Colorectal Cancer” (ACS Chemical Biology, 2025).

Tests used:
Type in all cases: biochemical
CDK6_CycD1 = target: T1, CDK6_CycD1 (Homo sapiens, UniProt Q00534); assay: Radiometric protein kinase assay (33PanQinase), CDK6_CycD1
T1 construct: purchased Reaction Biology

CDK4_CycD3 = target: T2, CDK4_CycD3 (Homo sapiens, UniProt P11802); assay: Radiometric protein kinase assay (33PanQinase), CDK4_CycD3
T2 construct: purchased Reaction Biology

CDK15_CycA2 = target: T3, CDK15_CycA2 (Homo sapiens, UniProt Q96Q40); assay: Radiometric protein kinase assay (33PanQinase), CDK15_CycA2
T3 construct: purchased Reaction Biology

CDK20_CycH = CDK20_CycH (Homo sapiens, UniProt Q8IZL9); assay: Radiometric protein kinase assay (33PanQinase), CDK20_CycH
CDK9_CycK = target: T4, CDK9_CycK (Homo sapiens, UniProt P50750); assay: Radiometric protein kinase assay (33PanQinase), CDK9_CycK
T4 construct: purchased Reaction Biology

CDK2_CycA2 = target: T5, CDK2_CycA2 (Homo sapiens, UniProt P24941); assay: Radiometric protein kinase assay (33PanQinase), CDK2_CycA2
T5 construct: purchased Reaction Biology

CDK17_p35NCK = CDK17_p35NCK (Homo sapiens, UniProt Q00537); assay: Radiometric protein kinase assay (33PanQinase), CDK17_p35NCK; conditions: slope of the IC50 fit
CDK13_CycK = target: T6, CDK13_CycK (Homo sapiens, UniProt Q14004); assay: Radiometric protein kinase assay (33PanQinase), CDK13_CycK; conditions: slope of the IC50 fit
T6 construct: purchased Reaction Biology

CDK1_CycA2 = target: T7, CDK1_CycA2 (Homo sapiens, UniProt P06493); assay: Radiometric protein kinase assay (33PanQinase), CDK1_CycA2; conditions: slope of the IC50 fit
T7 construct: purchased Reaction Biology

CDK4_CycD1 = target: T8, CDK4_CycD1 (Homo sapiens, UniProt P11802); assay: Radiometric protein kinase assay (33PanQinase), CDK4_CycD1
T8 construct: purchased Reaction Biology

CDK6_CycD3 = target: T9, CDK6_CycD3 (Homo sapiens, UniProt Q00534); assay: Radiometric protein kinase assay (33PanQinase), CDK6_CycD3
T9 construct: purchased Reaction Biology

CDK5_p25NCK = target: T10, CDK5_p25NCK (Homo sapiens, UniProt Q00535); assay: Radiometric protein kinase assay (33PanQinase), CDK5_p25NCK
T10 construct: purchased Reaction Biology

CDK3_CycC = target: T11, CDK3_CycC (Homo sapiens, UniProt Q00526); assay: Radiometric protein kinase assay (33PanQinase), CDK3_CycC; conditions: slope of the IC50 fit
T11 construct: purchased Reaction Biology

CDK4_CycD2 = target: T12, CDK4_CycD2 (Homo sapiens, UniProt P11802); assay: Radiometric protein kinase assay (33PanQinase), CDK4_CycD2
T12 construct: purchased Reaction Biology

CDK2_CycD1 = target: T13, CDK2_CycD1 (Homo sapiens, UniProt P24941); assay: Radiometric protein kinase assay (33PanQinase), CDK2_CycD1; conditions: slope of the IC50 fit
T13 construct: purchased Reaction Biology

CDK9_CycT1 = target: T14, CDK9_CycT1 (Homo sapiens, UniProt P50750); assay: Radiometric protein kinase assay (33PanQinase), CDK9_CycT1
T14 construct: purchased Reaction Biology

CDK8_CycC = target: T15, CDK8_CycC (Homo sapiens, UniProt P49336); assay: Radiometric protein kinase assay (33PanQinase), CDK8_CycC
T15 construct: purchased Reaction Biology

CDK19_CycC = target: T16, CDK19_CycC (Homo sapiens, UniProt Q9BWU1); assay: Radiometric protein kinase assay (33PanQinase), CDK19_CycC; conditions: slope of the IC50 fit
T16 construct: purchased Reaction Biology

CDK12_CycK = target: T17, CDK12_CycK (Homo sapiens, UniProt Q9NYV4); assay: Radiometric protein kinase assay (33PanQinase), CDK12_CycK; conditions: slope of the IC50 fit
T17 construct: purchased Reaction Biology

CDK5_p35NCK = target: T18, CDK5_p35NCK (Homo sapiens, UniProt Q00535); assay: Radiometric protein kinase assay (33PanQinase), CDK5_p35NCK
T18 construct: purchased Reaction Biology

CDK10_CycQ = CDK10_CycQ (Homo sapiens, UniProt Q15131); assay: Radiometric protein kinase assay (33PanQinase), CDK10_CycQ
CDK6_CycD2 = target: T19, CDK6_CycD2 (Homo sapiens, UniProt Q00534); assay: Radiometric protein kinase assay (33PanQinase), CDK6_CycD2
T19 construct: purchased Reaction Biology

CDK11B 357-795_CycK = CDK11B 357-795_CycK (Homo sapiens, UniProt P21127); assay: Radiometric protein kinase assay (33PanQinase), CDK11B 357-795_CycK
CDK2_CycE1 = target: T20, CDK2_CycE1 (Homo sapiens, UniProt P24941); assay: Radiometric protein kinase assay (33PanQinase), CDK2_CycE1
T20 construct: purchased Reaction Biology

CDK3_CycE1 = target: T21, CDK3_CycE1 (Homo sapiens, UniProt Q00526); assay: Radiometric protein kinase assay (33PanQinase), CDK3_CycE1
T21 construct: purchased Reaction Biology

CDK1_CycE1 = target: T22, CDK1_CycE1 (Homo sapiens, UniProt P06493); assay: Radiometric protein kinase assay (33PanQinase), CDK1_CycE1
T22 construct: purchased Reaction Biology

CDK7_CycH_MAT1 = target: T23, CDK7_CycH_MAT1 (Homo sapiens, UniProt P50613); assay: Radiometric protein kinase assay (33PanQinase), CDK7_CycH_MAT1
T23 construct: purchased Reaction Biology

CDK1_CycB1 = target: T24, CDK1_CycB1 (Homo sapiens, UniProt P06493); assay: Radiometric protein kinase assay (33PanQinase), CDK1_CycB1; conditions: slope of the IC50 fit
T24 construct: purchased Reaction Biology

CDK20_CycT1 = CDK20_CycT1 (Homo sapiens, UniProt Q8IZL9); assay: Radiometric protein kinase assay (33PanQinase), CDK20_CycT1
CDK16_CycY = target: T25, CDK16_CycY (Homo sapiens, UniProt Q00536); assay: Radiometric protein kinase assay (33PanQinase), CDK16_CycY
T25 construct: purchased Reaction Biology

CDK14_CycY = CDK14_CycY (Homo sapiens, UniProt O94921); assay: Radiometric protein kinase assay (33PanQinase), CDK14_CycY
CDK18_CycY = CDK18_CycY (Homo sapiens, UniProt Q07002); assay: Radiometric protein kinase assay (33PanQinase), CDK18_CycY
[1] = highest assay concentration 1.00E-05 M
[2] = highest assay concentration 1.00E-05 M, read-out: IC50

Chain of CDK11B 357-795_CycK (P21127 357-795): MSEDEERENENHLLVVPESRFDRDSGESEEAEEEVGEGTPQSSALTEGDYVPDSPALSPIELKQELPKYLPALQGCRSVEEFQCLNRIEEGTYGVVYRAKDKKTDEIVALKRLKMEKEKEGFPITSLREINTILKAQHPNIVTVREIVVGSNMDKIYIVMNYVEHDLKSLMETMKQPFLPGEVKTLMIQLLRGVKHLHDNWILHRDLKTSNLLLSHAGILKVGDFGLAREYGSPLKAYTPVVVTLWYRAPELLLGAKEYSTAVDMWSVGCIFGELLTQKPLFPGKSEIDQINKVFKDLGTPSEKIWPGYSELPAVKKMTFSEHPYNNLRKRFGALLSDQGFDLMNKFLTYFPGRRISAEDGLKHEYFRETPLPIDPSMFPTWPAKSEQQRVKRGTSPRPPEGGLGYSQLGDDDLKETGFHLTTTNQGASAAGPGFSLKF
T14 sequence (P50750 whole entry): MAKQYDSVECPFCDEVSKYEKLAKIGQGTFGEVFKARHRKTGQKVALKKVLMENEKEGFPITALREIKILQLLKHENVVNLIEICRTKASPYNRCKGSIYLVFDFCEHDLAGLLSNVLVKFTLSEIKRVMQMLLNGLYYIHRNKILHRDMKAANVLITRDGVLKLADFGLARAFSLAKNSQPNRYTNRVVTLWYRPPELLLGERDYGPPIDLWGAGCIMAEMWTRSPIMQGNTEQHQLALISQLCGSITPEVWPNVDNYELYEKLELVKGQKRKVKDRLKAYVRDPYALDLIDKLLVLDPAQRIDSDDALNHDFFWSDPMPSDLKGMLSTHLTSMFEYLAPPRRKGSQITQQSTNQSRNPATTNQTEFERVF
T14 sequence (O60563 whole entry partner): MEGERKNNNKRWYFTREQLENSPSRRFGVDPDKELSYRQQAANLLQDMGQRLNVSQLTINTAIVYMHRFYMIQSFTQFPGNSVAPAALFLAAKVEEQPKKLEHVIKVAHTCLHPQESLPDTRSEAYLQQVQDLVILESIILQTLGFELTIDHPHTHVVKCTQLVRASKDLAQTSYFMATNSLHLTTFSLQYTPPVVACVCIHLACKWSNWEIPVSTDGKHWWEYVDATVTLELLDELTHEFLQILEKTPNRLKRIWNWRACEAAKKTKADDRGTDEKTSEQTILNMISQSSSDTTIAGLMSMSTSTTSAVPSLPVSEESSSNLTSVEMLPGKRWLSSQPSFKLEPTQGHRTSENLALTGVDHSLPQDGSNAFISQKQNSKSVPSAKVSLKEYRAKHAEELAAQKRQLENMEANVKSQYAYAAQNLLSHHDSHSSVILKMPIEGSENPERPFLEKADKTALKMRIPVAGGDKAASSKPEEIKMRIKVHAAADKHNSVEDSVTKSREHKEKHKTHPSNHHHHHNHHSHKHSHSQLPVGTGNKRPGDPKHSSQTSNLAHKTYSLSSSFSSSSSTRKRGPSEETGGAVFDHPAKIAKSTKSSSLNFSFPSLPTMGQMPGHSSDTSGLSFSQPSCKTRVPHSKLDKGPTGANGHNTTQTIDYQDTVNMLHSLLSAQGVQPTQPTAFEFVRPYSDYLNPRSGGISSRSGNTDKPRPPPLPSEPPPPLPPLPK
T4 sequence (P50750 whole entry): as the sequence (P50750 whole entry) above
T4 sequence (O75909 whole entry partner): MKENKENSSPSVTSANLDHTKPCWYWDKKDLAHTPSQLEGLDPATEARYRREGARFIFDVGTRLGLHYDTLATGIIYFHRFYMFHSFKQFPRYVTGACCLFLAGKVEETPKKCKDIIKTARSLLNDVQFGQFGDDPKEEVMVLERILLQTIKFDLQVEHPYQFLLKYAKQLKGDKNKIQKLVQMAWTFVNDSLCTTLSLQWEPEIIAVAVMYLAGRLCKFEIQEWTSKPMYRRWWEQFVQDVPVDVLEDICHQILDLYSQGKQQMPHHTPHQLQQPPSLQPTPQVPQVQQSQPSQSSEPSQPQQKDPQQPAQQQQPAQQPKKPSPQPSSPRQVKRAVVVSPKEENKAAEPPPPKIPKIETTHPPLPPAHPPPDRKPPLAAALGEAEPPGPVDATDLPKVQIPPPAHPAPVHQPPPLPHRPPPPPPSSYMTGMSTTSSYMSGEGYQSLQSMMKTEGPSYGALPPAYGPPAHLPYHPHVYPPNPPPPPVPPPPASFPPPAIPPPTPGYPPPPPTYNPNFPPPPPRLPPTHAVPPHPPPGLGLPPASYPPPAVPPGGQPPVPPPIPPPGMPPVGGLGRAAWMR
Chain of CDK10_CycQ (Q15131 whole entry): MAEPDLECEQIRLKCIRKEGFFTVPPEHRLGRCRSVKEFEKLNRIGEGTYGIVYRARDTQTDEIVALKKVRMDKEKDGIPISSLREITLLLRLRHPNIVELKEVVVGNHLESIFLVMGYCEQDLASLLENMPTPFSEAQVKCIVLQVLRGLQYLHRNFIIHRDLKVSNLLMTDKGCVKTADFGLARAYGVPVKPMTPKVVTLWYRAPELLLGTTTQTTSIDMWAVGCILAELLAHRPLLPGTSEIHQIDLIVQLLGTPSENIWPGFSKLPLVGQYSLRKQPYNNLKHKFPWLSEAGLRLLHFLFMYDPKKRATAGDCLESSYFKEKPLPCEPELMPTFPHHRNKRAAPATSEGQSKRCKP
Chain of CDK10_CycQ (Q8N1B3 whole entry partner): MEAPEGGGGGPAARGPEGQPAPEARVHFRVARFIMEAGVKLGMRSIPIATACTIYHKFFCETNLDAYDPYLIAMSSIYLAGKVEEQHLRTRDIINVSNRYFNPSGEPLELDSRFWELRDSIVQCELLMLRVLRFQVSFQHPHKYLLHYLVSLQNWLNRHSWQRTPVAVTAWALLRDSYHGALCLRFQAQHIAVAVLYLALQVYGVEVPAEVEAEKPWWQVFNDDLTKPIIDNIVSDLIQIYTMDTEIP
T12 sequence (P11802 whole entry): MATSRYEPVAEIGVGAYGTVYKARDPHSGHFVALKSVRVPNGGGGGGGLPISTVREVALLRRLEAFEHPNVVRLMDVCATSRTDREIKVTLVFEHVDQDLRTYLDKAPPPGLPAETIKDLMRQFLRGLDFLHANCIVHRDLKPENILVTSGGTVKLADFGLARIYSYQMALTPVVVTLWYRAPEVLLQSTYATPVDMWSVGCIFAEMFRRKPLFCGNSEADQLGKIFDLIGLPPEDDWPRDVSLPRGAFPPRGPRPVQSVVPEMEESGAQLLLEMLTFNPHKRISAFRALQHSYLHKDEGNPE
T12 sequence (P30279 whole entry partner): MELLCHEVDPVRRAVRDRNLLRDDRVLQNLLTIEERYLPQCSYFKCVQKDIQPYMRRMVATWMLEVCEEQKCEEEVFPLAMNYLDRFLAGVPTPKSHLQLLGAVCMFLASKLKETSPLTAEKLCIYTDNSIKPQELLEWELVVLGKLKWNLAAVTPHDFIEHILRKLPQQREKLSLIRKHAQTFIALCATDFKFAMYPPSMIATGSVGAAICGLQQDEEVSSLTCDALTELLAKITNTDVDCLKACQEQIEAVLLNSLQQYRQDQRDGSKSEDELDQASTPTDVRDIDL
T2 sequence (P11802 whole entry): as the sequence (P11802 whole entry) above
T2 sequence (P30281 whole entry partner): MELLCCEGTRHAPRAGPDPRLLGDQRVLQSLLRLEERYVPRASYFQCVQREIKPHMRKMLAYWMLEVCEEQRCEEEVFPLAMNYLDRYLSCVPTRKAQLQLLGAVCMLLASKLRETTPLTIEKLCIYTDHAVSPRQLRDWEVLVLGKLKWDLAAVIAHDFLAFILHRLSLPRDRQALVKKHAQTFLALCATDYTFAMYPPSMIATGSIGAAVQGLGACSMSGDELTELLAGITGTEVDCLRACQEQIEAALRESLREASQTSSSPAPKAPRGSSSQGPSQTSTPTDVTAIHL
Chain of CDK20_CycT1 (Q8IZL9 whole entry): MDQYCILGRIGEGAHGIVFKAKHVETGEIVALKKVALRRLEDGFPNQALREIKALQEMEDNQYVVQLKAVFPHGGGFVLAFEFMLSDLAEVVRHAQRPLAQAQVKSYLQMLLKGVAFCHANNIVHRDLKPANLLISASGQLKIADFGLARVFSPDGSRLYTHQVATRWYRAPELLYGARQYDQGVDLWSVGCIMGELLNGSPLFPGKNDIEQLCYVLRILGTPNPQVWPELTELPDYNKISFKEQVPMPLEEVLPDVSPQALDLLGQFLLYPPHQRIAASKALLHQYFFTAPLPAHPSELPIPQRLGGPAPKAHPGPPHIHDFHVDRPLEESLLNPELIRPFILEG
Chain of CDK20_CycH (Q8IZL9 whole entry): as above
T15 sequence (P49336 whole entry): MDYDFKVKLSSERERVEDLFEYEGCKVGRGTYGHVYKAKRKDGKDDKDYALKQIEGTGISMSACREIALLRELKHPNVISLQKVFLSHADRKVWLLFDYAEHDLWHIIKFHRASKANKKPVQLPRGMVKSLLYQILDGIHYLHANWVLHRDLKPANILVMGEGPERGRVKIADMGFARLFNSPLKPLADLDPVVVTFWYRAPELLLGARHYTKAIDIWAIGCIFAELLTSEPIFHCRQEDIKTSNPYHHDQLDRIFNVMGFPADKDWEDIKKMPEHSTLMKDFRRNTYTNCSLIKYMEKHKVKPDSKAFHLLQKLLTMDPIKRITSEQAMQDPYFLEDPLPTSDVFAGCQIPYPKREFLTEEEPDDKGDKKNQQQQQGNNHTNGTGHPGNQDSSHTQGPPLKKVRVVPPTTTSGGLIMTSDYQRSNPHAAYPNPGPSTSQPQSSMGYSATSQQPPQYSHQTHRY
T15 sequence (P24863 whole entry partner): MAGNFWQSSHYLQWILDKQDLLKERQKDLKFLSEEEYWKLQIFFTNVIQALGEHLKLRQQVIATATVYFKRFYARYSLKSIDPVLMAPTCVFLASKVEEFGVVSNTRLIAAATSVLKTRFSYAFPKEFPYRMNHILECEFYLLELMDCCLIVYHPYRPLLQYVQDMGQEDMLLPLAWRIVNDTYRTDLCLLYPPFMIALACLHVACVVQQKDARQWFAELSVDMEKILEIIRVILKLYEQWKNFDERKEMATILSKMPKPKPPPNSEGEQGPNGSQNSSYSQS

With `CN1CCN(C(=O)c2ccc3cc(CCNc4ncnc5ccc(C#N)cc45)ccc3c2)CC1` [Senexin B, reference compound] the IC50 (CDK6_CycD1; [1]) was over 10 µM, the “Hill Slope” value (CDK6_CycD1; slope of the IC50 fit) was -0.17 and the IC50 (CDK4_CycD3; [1]) was over 10 µM. For the same compound, the “Hill Slope” value (CDK4_CycD3; slope of the IC50 fit) was -0.51, the IC50 (CDK15_CycA2; [1]) was over 10 µM and the “Hill Slope” value (CDK15_CycA2; slope of the IC50 fit) was -0.78. For the same compound, the IC50 (CDK20_CycH; [1]) was over 10 µM, the “Hill Slope” value (CDK20_CycH; slope of the IC50 fit) was -0.32 and the IC50 (CDK9_CycK; [1]) was 5.16 µM. For the same compound, the “Hill Slope” value (CDK9_CycK; slope of the IC50 fit) was -0.6, the IC50 (CDK2_CycA2; [2]) was over 10 µM and the “Hill Slope” value (CDK2_CycA2; slope of the IC50 fit) was -0.76. For the same compound, the “Hill Slope” value (CDK17_p35NCK) was -0.16, the “Hill Slope” value (CDK13_CycK) was -0.12 and the “Hill Slope” value (CDK1_CycA2) was -0.17. For the same compound, the IC50 (CDK4_CycD1; [1]) was over 10 µM, the “Hill Slope” value (CDK4_CycD1; slope of the IC50 fit) was -0.51 and the IC50 (CDK6_CycD3; [1]) was over 10 µM. The “Hill Slope” value (CDK6_CycD3; slope of the IC50 fit) was -0.32, the IC50 (CDK5_p25NCK; [1]) was over 10 µM and the “Hill Slope” value (CDK5_p25NCK; slope of the IC50 fit) was -0.24. For the same compound, the “Hill Slope” value (CDK3_CycC) was -0.01, the IC50 (CDK4_CycD2; [1]) was over 10 µM and the “Hill Slope” value (CDK4_CycD2; slope of the IC50 fit) was -0.64. The “Hill Slope” value (CDK2_CycD1) was -0.18, the IC50 (CDK9_CycT1; [1]) was 9.43 µM and the “Hill Slope” value (CDK9_CycT1; slope of the IC50 fit) was -0.82. The IC50 (CDK8_CycC; [2]) was 0.165 µM, the “Hill Slope” value (CDK8_CycC; slope of the IC50 fit) was -0.56 and the “Hill Slope” value (CDK19_CycC) was -0.53. The “Hill Slope” value (CDK12_CycK) was -0.18, the IC50 (CDK5_p35NCK; [1]) was over 10 µM and the “Hill Slope” value (CDK5_p35NCK; slope of the IC50 fit) was -0.43. For the same compound, the IC50 (CDK10_CycQ; [1]) was over 10 µM, the “Hill Slope” value (CDK10_CycQ; slope of the IC50 fit) was -0.47 and the IC50 (CDK6_CycD2; [1]) was over 10 µM. For the same compound, the “Hill Slope” value (CDK6_CycD2; slope of the IC50 fit) was -0.36, the IC50 (CDK11B 357-795_CycK; [1]) was over 10 µM and the “Hill Slope” value (CDK11B 357-795_CycK; slope of the IC50 fit) was -0.19. For the same compound, the IC50 (CDK2_CycE1; [2]) was over 10 µM, the “Hill Slope” value (CDK2_CycE1; slope of the IC50 fit) was -0.46 and the IC50 (CDK3_CycE1; [2]) was over 10 µM. For the same compound, the “Hill Slope” value (CDK3_CycE1; slope of the IC50 fit) was -0.36, the IC50 (CDK1_CycE1; [2]) was over 10 µM and the “Hill Slope” value (CDK1_CycE1; slope of the IC50 fit) was -0.4. For the same compound, the IC50 (CDK7_CycH_MAT1; [1]) was over 10 µM, the “Hill Slope” value (CDK7_CycH_MAT1; slope of the IC50 fit) was -0.55 and the “Hill Slope” value (CDK1_CycB1) was -0.12. The IC50 (CDK20_CycT1; [1]) was over 10 µM, the “Hill Slope” value (CDK20_CycT1; slope of the IC50 fit) was -0.45 and the IC50 (CDK16_CycY; [1]) was over 10 µM. The “Hill Slope” value (CDK16_CycY; slope of the IC50 fit) was -0.95, the IC50 (CDK14_CycY; [1]) was over 10 µM and the “Hill Slope” value (CDK14_CycY; slope of the IC50 fit) was -0.57. For the same compound, the IC50 (CDK18_CycY; [1]) was over 10 µM and the “Hill Slope” value (CDK18_CycY; slope of the IC50 fit) was -0.39.
